# Key:
# [1] = molecular target: T1, HiBiT-BRM fusion protein in stable HeLa cell line (Homo sapiens, UniProt P51531); assay: HiBiT-BRM cell-based degradation assay (Nano-Glo HiBiT Lytic Detection, 24 h); parameters: DC50: scale not given here; details: HeLa HiBiT-BRM cells; for DC50: read-out: BRM HiBit Degradation IC50; for BRM HiBit Degradation Maximum (%): top dose 30 μM
# T1 construct: expressed in transfected cells
# Summary of the method: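 HeLa stably expressing HiBiT-BRM; 24 h compound exposure, 10-pt 3-fold dilution from 30 μM final, duplicates. Lytic LgBiT complementation, luminescence. % degradation vs DMSO (HC) and 2 μM known BRM/BRG1 degrader (LC).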
# [2] = molecular target: T2, HiBit-BRG1 fusion protein in stable HeLa cell line expressing HiBit-BRG1 and LgBit (Homo sapiens, UniProt P51532); assay: HiBiT-BRG1 cell-based degradation assay (Nano-Glo HiBiT, 24 h); details: HeLa HiBit-BRG1/LgBit cells; for Dmax: top dose 30 μM, read-out: BRG1 HiBit Degradation Maximum (%); for DC50: read-out: BRMG1 HiBit Degradation IC50
# T2 construct: expressed in transfected cells
# Summary of the method: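 Degradation calculated from NanoBiT luminescence relative to DMSO-treated cells (high) and cells given 2 μM known BRM/BRG1 degrader (low). HeLa cells stably expressing HiBiT-BRG1 plus LgBiT were exposed to compound for 24 h before lytic HiBiT detection.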
# T1 sequence (P51531 whole entry, the tested form may be a part): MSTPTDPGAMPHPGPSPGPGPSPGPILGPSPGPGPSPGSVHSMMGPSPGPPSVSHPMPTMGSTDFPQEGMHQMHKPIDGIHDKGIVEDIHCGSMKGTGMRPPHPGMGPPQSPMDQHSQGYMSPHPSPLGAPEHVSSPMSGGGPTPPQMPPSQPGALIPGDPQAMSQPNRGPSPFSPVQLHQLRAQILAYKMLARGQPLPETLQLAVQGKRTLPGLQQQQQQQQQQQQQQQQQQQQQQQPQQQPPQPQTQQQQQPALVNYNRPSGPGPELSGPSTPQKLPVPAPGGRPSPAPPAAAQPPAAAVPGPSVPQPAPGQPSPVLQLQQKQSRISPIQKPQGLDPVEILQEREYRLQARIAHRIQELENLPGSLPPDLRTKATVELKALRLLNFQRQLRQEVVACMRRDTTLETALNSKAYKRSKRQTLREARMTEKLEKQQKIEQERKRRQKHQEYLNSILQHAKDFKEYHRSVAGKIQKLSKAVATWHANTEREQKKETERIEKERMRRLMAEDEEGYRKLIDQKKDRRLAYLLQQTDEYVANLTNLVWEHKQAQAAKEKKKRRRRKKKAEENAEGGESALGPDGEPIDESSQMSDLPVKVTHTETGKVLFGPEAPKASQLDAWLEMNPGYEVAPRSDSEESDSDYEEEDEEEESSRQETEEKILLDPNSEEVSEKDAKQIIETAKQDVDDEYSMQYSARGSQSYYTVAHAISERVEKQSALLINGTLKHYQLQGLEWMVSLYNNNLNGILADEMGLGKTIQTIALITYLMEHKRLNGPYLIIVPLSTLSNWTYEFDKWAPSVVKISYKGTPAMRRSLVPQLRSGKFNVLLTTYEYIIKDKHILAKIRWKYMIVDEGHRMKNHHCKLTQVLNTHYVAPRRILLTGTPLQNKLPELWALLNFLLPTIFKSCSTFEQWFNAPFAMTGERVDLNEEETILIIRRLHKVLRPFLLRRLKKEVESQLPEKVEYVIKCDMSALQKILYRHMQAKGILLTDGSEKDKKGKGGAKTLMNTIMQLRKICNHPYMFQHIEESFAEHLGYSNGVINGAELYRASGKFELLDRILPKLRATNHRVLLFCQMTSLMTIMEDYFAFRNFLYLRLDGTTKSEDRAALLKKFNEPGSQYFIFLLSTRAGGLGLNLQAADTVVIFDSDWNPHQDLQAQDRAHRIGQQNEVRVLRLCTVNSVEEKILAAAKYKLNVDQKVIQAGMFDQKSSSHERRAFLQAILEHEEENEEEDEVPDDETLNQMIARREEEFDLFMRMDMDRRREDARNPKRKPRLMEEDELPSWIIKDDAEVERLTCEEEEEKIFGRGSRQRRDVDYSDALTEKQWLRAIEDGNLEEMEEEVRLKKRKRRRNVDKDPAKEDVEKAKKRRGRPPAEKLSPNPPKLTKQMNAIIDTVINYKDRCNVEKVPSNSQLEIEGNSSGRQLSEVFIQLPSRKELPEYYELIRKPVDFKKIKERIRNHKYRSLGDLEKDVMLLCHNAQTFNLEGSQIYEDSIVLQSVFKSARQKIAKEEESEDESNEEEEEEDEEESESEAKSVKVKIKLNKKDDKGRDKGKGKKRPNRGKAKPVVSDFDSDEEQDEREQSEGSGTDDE
# T2 sequence (P51532 whole entry, the tested form may be a part): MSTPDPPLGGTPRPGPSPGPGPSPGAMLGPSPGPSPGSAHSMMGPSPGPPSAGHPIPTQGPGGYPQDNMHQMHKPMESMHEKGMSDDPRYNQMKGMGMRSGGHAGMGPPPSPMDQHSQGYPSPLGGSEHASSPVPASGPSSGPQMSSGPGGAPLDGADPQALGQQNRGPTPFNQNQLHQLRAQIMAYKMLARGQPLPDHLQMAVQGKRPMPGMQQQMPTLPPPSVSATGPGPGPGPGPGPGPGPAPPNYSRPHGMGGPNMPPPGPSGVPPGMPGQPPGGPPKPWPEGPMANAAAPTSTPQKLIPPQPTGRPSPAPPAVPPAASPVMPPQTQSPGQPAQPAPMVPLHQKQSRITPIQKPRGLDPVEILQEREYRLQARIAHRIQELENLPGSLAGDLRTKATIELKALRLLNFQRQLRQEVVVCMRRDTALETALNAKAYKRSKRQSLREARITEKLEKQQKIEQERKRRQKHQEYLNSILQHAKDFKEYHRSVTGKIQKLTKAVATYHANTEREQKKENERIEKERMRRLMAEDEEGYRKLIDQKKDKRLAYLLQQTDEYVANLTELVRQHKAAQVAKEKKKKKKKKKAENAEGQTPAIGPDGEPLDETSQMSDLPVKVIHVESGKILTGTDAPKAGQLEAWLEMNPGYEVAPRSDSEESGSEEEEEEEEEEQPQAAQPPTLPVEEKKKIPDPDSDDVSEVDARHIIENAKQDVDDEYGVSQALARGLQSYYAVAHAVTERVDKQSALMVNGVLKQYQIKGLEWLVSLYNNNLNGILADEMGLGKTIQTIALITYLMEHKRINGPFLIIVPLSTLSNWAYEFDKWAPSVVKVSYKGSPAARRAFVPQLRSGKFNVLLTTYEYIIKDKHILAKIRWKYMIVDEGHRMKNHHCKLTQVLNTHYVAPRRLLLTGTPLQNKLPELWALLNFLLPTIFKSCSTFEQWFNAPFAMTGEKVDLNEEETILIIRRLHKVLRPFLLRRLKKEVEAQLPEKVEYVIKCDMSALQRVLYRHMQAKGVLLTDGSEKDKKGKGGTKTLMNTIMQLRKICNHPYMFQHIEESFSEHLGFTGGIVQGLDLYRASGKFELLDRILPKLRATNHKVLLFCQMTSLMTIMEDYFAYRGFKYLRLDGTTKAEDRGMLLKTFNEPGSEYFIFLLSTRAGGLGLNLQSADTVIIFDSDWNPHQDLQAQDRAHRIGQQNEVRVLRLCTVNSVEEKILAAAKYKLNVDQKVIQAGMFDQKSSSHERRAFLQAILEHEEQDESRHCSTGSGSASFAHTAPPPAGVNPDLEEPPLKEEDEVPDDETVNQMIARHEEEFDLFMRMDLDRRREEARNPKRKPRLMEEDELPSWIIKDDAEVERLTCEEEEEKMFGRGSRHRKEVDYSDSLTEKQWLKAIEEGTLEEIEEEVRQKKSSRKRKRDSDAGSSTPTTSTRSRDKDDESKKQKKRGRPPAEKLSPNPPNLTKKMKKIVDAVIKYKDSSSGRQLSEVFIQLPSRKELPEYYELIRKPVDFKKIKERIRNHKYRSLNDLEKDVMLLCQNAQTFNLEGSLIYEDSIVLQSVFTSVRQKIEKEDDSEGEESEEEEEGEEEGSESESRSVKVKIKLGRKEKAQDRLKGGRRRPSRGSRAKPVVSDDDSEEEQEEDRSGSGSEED
SMILES,DC50 [1] [nM],BRM HiBit Degradation Maximum (%) [1],Dmax [2] [%],DC50 [2] [nM]
"Cc1ncsc1-c1ccc([C@H](C)NC(=O)[C@@H]2C[C@@H](O)CN2C(=O)[C@H](C(C)C)n2cc(N3CC4(CN(c5ccc6nnc(-c7ccccc7O)cc6c5)CCO4)C3)nn2)cc1 [Compound 189, (2S,4R)-4-hydroxy-1-((S)-2-(4-(8-(3-(2-hydroxyphenyl)cinnolin-6-yl)-5-oxa-2,8-diazaspiro[3.5]nonan-2-yl)-1H-1,2,3-triazol-1-yl)-3-methylbutanoyl)-N-((S)-1-(4-(4-methylthiazol-5-yl)phenyl)ethyl)pyrrolidine-2-carboxamide]",< 10,A (“A” indicates maximum degradation ≥75%),< 50,
"Cc1ncsc1-c1ccc([C@H](C)NC(=O)[C@@H]2C[C@@H](O)CN2C(=O)[C@H](C(C)C)n2cc(-c3ccc4nnc(-c5ccccc5O)cc4c3Cl)nn2)cc1 [Compound 190, (2S,4R)-1-((S)-2-(4-(5-chloro-3-(2-hydroxyphenyl)cinnolin-6-yl)-1H-1,2,3-triazol-1-yl)-3-methylbutanoyl)-4-hydroxy-N-((S)-1-(4-(4-methylthiazol-5-yl)phenyl)ethyl)pyrrolidine-2-carboxamide]",< 10,A (“A” indicates maximum degradation ≥75%),< 50,
"Cc1ncsc1-c1ccc([C@H](C)NC(=O)[C@@H]2C[C@@H](O)CN2C(=O)C(c2cc(N3CC4(CN(c5cc(C(F)F)c6cc(-c7ccccc7O)nnc6c5)C4)C3)no2)C(C)C)cc1 (stereo partly drawn) [Compound 191, (2S,4R)-1-(2-(3-(6-(5-(difluoromethyl)-3-(2-hydroxyphenyl)cinnolin-7-yl)-2,6-diazaspiro[3.3]heptan-2-yl)isoxazol-5-yl)-3-methylbutanoyl)-4-hydroxy-N-((S)-1-(4-(4-methylthiazol-5-yl)phenyl)ethyl)pyrrolidine-2-carboxamide]",> 10,A (“A” indicates maximum degradation ≥75%),< 50,
"Cc1ncsc1-c1ccc([C@H](C)NC(=O)[C@@H]2C[C@@H](O)CN2C(=O)[C@H](C(C)C)n2cc(N3CCC4(CCN(c5ccc6cc(-c7ccccc7O)nnc6c5)CC4)CC3)nn2)cc1 [Compound 192, (2S,4R)-4-hydroxy-1-((S)-2-(4-(9-(3-(2-hydroxyphenyl)cinnolin-7-yl)-3,9-diazaspiro [5.5]undecan-3-yl)-1H-1,2,3-triazol-1-yl)-3-methylbutanoyl)-N-((S)-1-(4-(4-methylthiazol-5-yl)phenyl)ethyl)pyrrolidine-2-carboxamide]",< 10,A (“A” indicates maximum degradation ≥75%),> 75,< 10
"Cc1ncsc1-c1ccc([C@H](C)NC(=O)[C@@H]2C[C@@H](O)CN2C(=O)[C@H](C2CCC2)n2cc(N3CC4(CC(c5ccc6cc(-c7ccccc7O)nnc6c5)C4)C3)nn2)cc1 [Compound 193, (2S,4R)-1-((S)-2-cyclobutyl-2-(4-(6-(3-(2-hydroxyphenyl)cinnolin-7-yl)-2-azaspiro[3.3]heptan-2-yl)-1H-1,2,3-triazol-1-yl)acetyl)-4-hydroxy-N-((S)-1-(4-(4-methylthiazol-5-yl)phenyl)ethyl)pyrrolidine-2-carboxamide]",< 10,A (“A” indicates maximum degradation ≥75%),> 75,> 10
"Cc1ncsc1-c1ccc([C@H](C)NC(=O)[C@@H]2C[C@@H](O)CN2C(=O)[C@@H](c2cc(N3CC4(CN(c5ccc6cc(-c7ccccc7O)nnc6c5)C4)C3)sn2)C(C)C)cc1 [Compound 195, (2S,4R)-4-hydroxy-1-[(2R)-2-(5-{6-[3-(2-hydroxyphenyl)cinnolin-7-yl]-2,6-diazaspiro[3.3]heptan-2-yl}-1,2-thiazol-3-yl)-3-methylbutanoyl]-N-[(1S)-1-[4-(4-methyl-1,3-thiazol-5-yl)phenyl]ethyl]pyrrolidine-2-carboxamide]",< 10,A (“A” indicates maximum degradation ≥75%),> 50,
"COC[C@@H]1CN(c2cc([C@H](C(=O)N3C[C@H](O)C[C@H]3C(=O)N[C@@H](C)c3ccc(-c4scnc4C)cc3)C(C)C)on2)CCN1c1ccc2cc(-c3ccccc3O)nnc2c1 [Compound 196, (2S,4R)-4-hydroxy-1-((R)-2-(3-((S)-4-(3-(2-hydroxyphenyl)cinnolin-7-yl)-3-(methoxymethyl)piperazin-1-yl)isoxazol-5-yl)-3-methylbutanoyl)-N-((S)-1-(4-(4-methylthiazol-5-yl)phenyl)ethyl)pyrrolidine-2-carboxamide]",> 10,B (“B” indicates maximum degradation ≥50%),< 50,
"Cc1ncsc1-c1ccc([C@H](C)NC(=O)[C@@H]2C[C@@H](O)CN2C(=O)C(C(C)C)n2cc(N3CCC4(CC3)CN(c3ccc5cc(-c6ccccc6O)nnc5c3)C4)nn2)cc1 (stereo partly drawn) [Compound 197, (2S,4R)-4-hydroxy-1-(2-(4-(2-(3-(2-hydroxyphenyl)cinnolin-7-yl)-2,7-diazaspiro[3.5]nonan-7-yl)-1H-1,2,3-triazol-1-yl)-3-methylbutanoyl)-N-((S)-1-(4-(4-methylthiazol-5-yl)phenyl)ethyl)pyrrolidine-2-carboxamide]",< 10,A (“A” indicates maximum degradation ≥75%),> 75,< 10
Cc1ncsc1-c1ccc([C@H](C)NC(=O)[C@@H]2C[C@@H](O)CN2C(=O)[C@H](C(C)C)n2cc(N3CCN4CCN(c5ccc6cc(-c7ccccc7O)nnc6c5)C[C@H]4C3)nn2)cc1 [Compound 198],< 10,A (“A” indicates maximum degradation ≥75%),> 75,< 10
"Cc1ncsc1-c1ccc([C@H](C)NC(=O)[C@@H]2C[C@@H](O)CN2C(=O)[C@@H](c2cc(C3CC4(C3)CN(c3ccc5cc(-c6ccccc6O)nnc5c3)C4)no2)C(C)C)cc1 [Compound 199, (2S,4R)-4-hydroxy-1-((R)-2-(3-(2-(3-(2-hydroxyphenyl)cinnolin-7-yl)-2-azaspiro[3.3]heptan-6-yl)isoxazol-5-yl)-3-methylbutanoyl)-N-((S)-1-(4-(4-methylthiazol-5-yl)phenyl)ethyl)pyrrolidine-2-carboxamide]",< 10,A (“A” indicates maximum degradation ≥75%),> 75,> 10
"CC(C)[C@@H](C(=O)N1C[C@H](O)C[C@H]1C(=O)N[C@@H](C)c1ccc(F)cc1)n1cc(N2CC3(CN(c4ccc5cc(-c6ccccc6O)nnc5c4)C3)C2)nn1 [Compound 201, (2S,4R)-N-((S)-1-(4-fluorophenyl)ethyl)-4-hydroxy-1-((S)-2-(4-(6-(3-(2-hydroxyphenyl)cinnolin-7-yl)-2,6-diazaspiro[3.3]heptan-2-yl)-1H-1,2,3-triazol-1-yl)-3-methylbutanoyl)pyrrolidine-2-carboxamide]",< 10,A (“A” indicates maximum degradation ≥75%),> 50,> 10
"CC(C)[C@@H](C(=O)N1C[C@H](O)C[C@H]1C(=O)N[C@@H](C)c1ccc(C#N)cc1)n1cc(N2CC3(CN(c4ccc5cc(-c6ccccc6O)nnc5c4)C3)C2)nn1 [Compound 202, (2S,4R)-N-((S)-1-(4-cyanophenyl)ethyl)-4-hydroxy-1-((S)-2-(4-(6-(3-(2-hydroxyphenyl)cinnolin-7-yl)-2,6-diazaspiro[3.3]heptan-2-yl)-1H-1,2,3-triazol-1-yl)-3-methylbutanoyl)pyrrolidine-2-carboxamide]",< 10,A (“A” indicates maximum degradation ≥75%),> 50,> 10
"Cc1ncsc1-c1ccc([C@H](C)NC(=O)[C@@H]2C[C@@H](O)CN2C(=O)[C@H](C(C)C)n2cc(-c3ccc4nnc(-c5ccccc5O)cc4c3C)nn2)cc1 [Compound 203, (2S,4R)-4-hydroxy-1-((S)-2-(4-(3-(2-hydroxyphenyl)-5-methylcinnolin-6-yl)-1H-1,2,3-triazol-1-yl)-3-methylbutanoyl)-N-((S)-1-(4-(4-methylthiazol-5-yl)phenyl)ethyl)pyrrolidine-2-carboxamide]",> 10,A (“A” indicates maximum degradation ≥75%),< 50,
"Cc1ncsc1-c1ccc([C@H](C)NC(=O)[C@@H]2C[C@@H](O)CN2C(=O)[C@H](C(C)C)n2cc(C3CC4(C3)CN(c3ccc5nnc(-c6ccccc6O)cc5c3)C4)nn2)cc1 [Compound 204, (2S,4R)-4-hydroxy-1-((S)-2-(4-(2-(3-(2-hydroxyphenyl)cinnolin-6-yl)-2-azaspiro[3.3]heptan-6-yl)-1H-1,2,3-triazol-1-yl)-3-methylbutanoyl)-N-((S)-1-(4-(4-methylthiazol-5-yl)phenyl)ethyl)pyrrolidine-2-carboxamide]",< 10,A (“A” indicates maximum degradation ≥75%),> 75,< 10
"Cc1ncsc1-c1ccc([C@H](C)NC(=O)[C@@H]2C[C@@H](O)CN2C(=O)[C@@H](c2cc(N3CC4(CN(c5cc(C(F)F)c6cc(-c7ccccc7O)nnc6c5)C4)C3)no2)C(C)C)cc1 [Compound 205, (2S,4R)-1-((R)-2-(3-(6-(5-(difluoromethyl)-3-(2-hydroxyphenyl)cinnolin-7-yl)-2,6-diazaspiro[3.3]heptan-2-yl)isoxazol-5-yl)-3-methylbutanoyl)-4-hydroxy-N-((S)-1-(4-(4-methylthiazol-5-yl)phenyl)ethyl)pyrrolidine-2-carboxamide]",< 10,A (“A” indicates maximum degradation ≥75%),< 50,
